Data on one molecule can be found in patent publication US8506997B2, “Pharmaceutical compound containing silymarin and carbopol, its manufacturing process and its use as a regenerator of the pancreatic tissue and cells of endogenous secretion damaged by diabetes mellitus” (Universidad Autonoma Metropolitana, priority 2002, dated 2013).

What all share (assay type): in vivo
In one assay the test system is pancreatic tissue. The experiment in a line: Histopathological analysis of the pancreatic tissue (HE staining). The conditions noted are these: treatment with Alloxan only. The method, then:
(§1) The treatment of the Silymarin and Carbopol combined with Alloxan was done in two ways. In the first case, a dose of 200 mg/Kg of the Silymarin and Carbopol compound was administered orally at 6, 24 and 48 hours (two days) after the first dose. In the second case, in addition to the dose mentioned in the first case, the administration was prolonged every 24 hours after the first dose for five more days (seven days). In both cases, the dose of Alloxan was 150 mg/Kg, which was administered subcutaneously one hour after the first dose of the Silymarin and Carbopol compound.
This analysis was done in transversal fragments of pancreas approximately 0.7 cm long corresponding to the head of the organ. Subsequently, by the paraffin embedding technique, 5 μm sections where then obtained, which were stained with the dyes hematoxylin and eosin (HE). This technique consists in: 1) dehydration of the tissue, which is done by passing the tissue through different concentration of alcohol (from 25 to 100%) and then to an alcohol-toluene, toluene-paraffin and paraffin mixture. Once the tissues are dehydrated, blocks are formed with paraffin. 2) Sectioning of the tissue. This is done in a microtome, which is adjusted to the right section thickness of 4 to 6 μm and is placed in a slide. 3) Staining of the sections. This was done with the dyes hematoxylin and eosin. […]

The next assay deals with glutathione peroxidase. The experiment in a line: Activity of pancreatic antioxidant enzymes: glutathione peroxidase. The conditions noted are these: pancreas; Alloxan (20 days after its administration). The method, then:
(§2) A determination was made of the pancreatic activity of the antioxidant enzymes: superoxide dismutase, glutathione peroxidase and catalase. To do such determination, the pancreas was weighed, it was homogenized with a phosphate buffer 50 mM, it was centrifuged at 3000 rpm, and the supernatant was separated. The activities of the aforementioned enzymes was determined in this.
Glutathione peroxidase.—This quantification was done by the method of Prasad et al. (1992). This enzyme catalyzes the breakdown of H2O2 by the NADPH. Its activity is measured by the velocity of absorbance change during the conversion of NADPH to NADP^+ and this may be spectrophotometrically registered at […].

Another assay relates to islets of Langerhans. The experiment in a line: Immunohistochemical analysis for insulin and glucagon in the islets of Langerhans by confocal microscopy. The conditions noted are these: treatment with Alloxan only (FIG. 1). The method, then: as §1
This analysis is carried out on sections of pancreatic tissue (corresponding to the head of the pancreas). Once the sections have been obtained (described in example 3) they are placed on a slide and the tissue is then deparaffinated and rehydrated. It is begun in pure xylol, with two changes of 10 minutes each. The samples are then passed to a mixture of ethanol-xylol for 10 minutes and afterward to alcohols of different percentages: 100, 90, 80 and 70% for five minutes each. […] At the end of this time, they are flushed with PBS and incubated in a mixture of secondary antibodies coupled with fluorochromes, fluorescein and rhodamine, for one hour at ambient temperature and they are then mounted in a specific medium to preserve the fluorescence. The samples are analyzed by confocal microscopy. […]

Another assay has as its system superoxide dismutase. The experiment in a line: Activity of pancreatic antioxidant enzymes: superoxide dismutase. The conditions noted are these: pancreas; Alloxan (20 days after its administration). The method, then: as §2
Superoxide dismutase.—This quantification was done by the method of Prasad et al. (1992). Superoxide ions are formed by xanthine and xanthine oxidase. These ions react with the tetrazolium blue and they form a colour compound that can be spectrophotometrically quantified at 560 nm. A unit of superoxide dismutase can inhibit the formation of this compound by 50%.

The next assay relates to catalase. Kind of assay: Activity of pancreatic antioxidant enzymes: catalase. The conditions noted are these: pancreas; Alloxan (20 days after its administration). The method, then: as §2
Catalase.—This quantification was carried out by the Aebi method (1995). This enzyme catalyzes the breakdown of H2O2 and the decomposition velocity of the oxygenated water is measured spectrophotometrically at 240 nm.

For a further assay, the system named is serum glucose. Kind of assay: Determination of serum glucose (ortho-toluidine method) in Alloxan-induced Diabetes Mellitus. Conditions: 20 days after Alloxan, before starting the treatment with the Silymarin and Carbopol compound. The method, then: as §1
The determination of blood glucose was carried out by the Baner method. This consisted in taking 50 μl of serum to which 3.0 ml of ortho-toluidine reagent were added which reacts with aldohexoses and forms […] and a Schiff base, the green color developed has a maximum absorption at 620 nm and is proportional to the quantity of glucose present.
In the case of the combined administration of the Silymarin and Carbopol compound with Alloxan, the determination of serum glucose was done before the administration of the drugs and at 3, 5, 15 and 30 days after the treatment. […]

Take `O=C1NC(=O)C(=O)C(=O)N1` [Alloxan]: the “histopathology of the pancreatic tissue” value in the assay with pancreatic tissue was “cellular disorganization with loss of the islets of Langerhans”. In addition, in the assay with glutathione peroxidase, the “Enzymatic activity Glutathione Peroxidase” value is 0.016 ± .002 μM NADPH/min/mg prot. Besides, the “pancreatic islet, insulin and glucagon immunostaining” value in the assay with islets of Langerhans was “destruction occurred of the pancreatic islet”. The “Enzymatic activity Superoxide Dismutase” value in the assay on superoxide dismutase is given as 4.3 ± 0.02 U/mg protein. Further, the “Enzymatic activity Catalase” value in the assay on catalase is 0.01 ± 0.002 k/sec/mg of protein. Besides, in the assay on serum glucose, the “serum glucose concentration above the normal value” is on record as “approximately 400%”.
